According to patent US20240376555A1, “TNRA MODIFICATION-SENSITIVE CODON TRANSLATION ASSAY COMPRISING LUMINESCENCE-BASED REPORTER SYSTEM” (priority 2021, published 2024):
“Also recorded” adds a separate entry of the source.

Tests used:
U34 enzymes [1] = assay: Dual luciferase (NanoLuc/Firefly) tRNA modification-sensitive codon translation assay in A549 cells; type: cell-based; conditions: A549 human lung cells; time and concentration series; six U34 codon (xAA) repeats upstream of NanoLuc, xAG upstream of FireflyLuc; FIG. 1g-h
Procedure: (§1) In the preferred embodiment, the luminescence-based reporter system is the Nano-Glo® Dual-Luciferase® Reporter (NanoDLR™) Assay System commercially available from Promega. The medium may be removed and 40 microliters of complete cell culture medium may be added. The plate may be equilibrated at room temperature for 15 min. 40 microliters of ONE-Glo™ EX Reagent may be added for each well. The plates may be mixed and shaked and protected from light for 10 minutes. Then the luminescence may be read. 40 microliters of NanoDLR™ Stop and GloR Reagent may be freshly prepared and added to each well. The plates may be mixed and shaked and protected from light for 10 minutes. The luminescence may be read by any luminescence reader, preferably. The luminescence may be analyzed by calculating the Nanoluc/Firefly ratio.
(§2) Cells (MDA-MB231, M395 or A549) were stably transduced by the lentiviral system (pLV-Puro-hPGK) and 1:3 Mirus transfecting agent [Close et al, Mol Cell 2006].
(§3) Cells were culture in a suitable culture system in the presence of the candidate tRNA modification modulator.
(§4) Signals were detected by any luminescence reader, for example the TECAN Infinite M2000 Pro. Read time can be between 1 and 3 seconds with automatic attenuation.
(§5) No effect was seen using a construct lacking the codon repetitions (FIG. 1e). […]

U34 enzymes [2] = assay: Dual luciferase (NanoLuc/Firefly) tRNA modification-sensitive codon translation assay in M395 cells; type: cell-based; conditions: M395 human primary melanoma cells; 250 nM for 24 hours; six U34 codon (xAA) repeats upstream of NanoLuc, xAG upstream of FireflyLuc; FIG. 1f
Procedure: as §1, §2, §3, §4, §5

| Molecule | luciferase specific signal (U34 enzymes [1]) | luciferase specific ratio (NanoLuc/Firefly) (U34 enzymes [2]) |
| --- | --- | --- |
| Cn1c(=O)n(-c2ccc(C(C)(C)C#N)cc2)c2c3cc(-c4cnc5ccccc5c4)ccc3ncc21 [NVP-BEZ235] | decreased luciferase specific signal in a time and concentration-dependent manner; also recorded: decreased luciferase specific signal in a time and concentration dependent manner | – |
| CC(C)n1nc(-c2cc3cc(O)ccc3[nH]2)c2c(N)ncnc21 [PP242] | decreased luciferase specific signal in a time and concentration-dependent manner; also recorded: decreased luciferase specific signal in a time and concentration dependent manner | – |
| insulin | – | increased luciferase specific ratio |
